Data as given in patent US11980633B2, “Method for treating cancer using a combination of DNA-damaging agents and DNA-PK inhibitors” (Vertex Pharmaceuticals Incorporated, priority 2016, dated 2024).

Experiments:
[1] = system: primary human hepatocellular carcinoma (HCC) tumor; assay: TCA: Compound B-1 with doxorubicin hydrochloride, primary HCC tumor; assay type: cell-based; conditions: tumor L090923, Liver
Description: (§1) In both studies, cell viability was assessed after 6 days in culture. Statistical analysis of the combination matrix was performed to assess whether synergy, additivity, or antagonism of the combination treatments were observed.
(§2) Materials: Primary patient samples (See Tables 16 and 17, below) were excised from mice when they reached 500 mg to 1000 mg in size and processed immediately, or after overnight shipment. Tumors were serially passaged by subcutaneous implantation of 50 mg to 150 mg fragments into the flanks of immunocompromised (nude) mice. Tumors were used within the first 5 or 7 passages.
Tumor Chemosensitivity Assay (TCA): Primary tumor samples were grown and serially passaged in immunocompromised mice. Tumors were mechanically dissociated into small fragments (1 mm to 2 mm) with scalpels in phosphate buffered saline (PBS or RPMI) and centrifuged at 200×g for 5 minutes at room temperature in 50 mL centrifuge tubes. Samples were resuspended in 10 mL of cell dissociation reagent and enzymatically digested with mechanical agitation for 1 to 3 hours at 37° C., 5% CO2 to a single cell suspension. Ten mL of complete RPMI-1640 media was added to the cell mixture and pipetted up and down 4 to 5 times. The mixture was then passed through a 70 μm or 100 μm mesh strainer to remove undigested tumor. […] Cells were diluted in Trypan blue, and viable cells that excluded the dye were counted. […]

[2] = system: primary human tumors (NSCLC, SCLC, pancreatic, HCC, gastric, esophageal); assay: TCA assays overall: all combination treatments with Compound B-1; assay type: cell-based
Description: as §1, §2
Tumor Chemosensitivity Assay (TCA): Primary tumor samples were grown and serially passaged in immunocompromised mice. Tumors were mechanically dissociated into small fragments (1 mm to 2 mm) with scalpels in phosphate buffered saline (PBS or RPMI) and centrifuged at 200×g for 5 minutes at room temperature in 50 mL centrifuge tubes. Samples were resuspended in 10 mL of cell dissociation reagent and enzymatically digested with mechanical agitation for 1 to 3 hours at 37° C., 5% CO2 to a single cell suspension. Ten mL of complete RPMI-1640 media was added to the cell mixture and pipetted up and down 4 to 5 times. The mixture was then passed through a 70 μm or 100 μm mesh strainer to remove undigested tumor. The filtrate was then centrifuged 200×g for 5 minutes at room temperature and resuspended in 20 mL complete RPMI-1640. This cell suspension was slowly layered onto 20 mL of room temperature Histopaque and centrifuged at 400×g for 15 minutes at room temperature without a brake. The interface was transferred to a new 50 mL centrifuge tube and 15 mL of complete RPMI-1640 was added. This suspension was centrifuged at 200×g at room temperature, and the resulting pellet was resuspended in 10 mL of complete PC-1 media, except for pancreatic tumors in which case Pancreatic Medium was used. Cells were diluted in Trypan blue, and viable cells that excluded the dye were counted. Only the larger, tumor cells were included in the cell count. […]

CNC(=O)c1ccnc2c([C@H](C)CNc3cc(-c4cnc(C)nc4)ncn3)cccc12 [Compound B-1]
Average Bliss score [1]: 4 | tumors that showed antagonism ([2]; all TCA combinations with Compound B-1 (4/63)): 6% | combination treatments that showed additive effects ([2]; all TCA combinations with Compound B-1 (29/63)): 46% | combination treatments that demonstrated synergy or strong synergy ([2]; all TCA combinations with Compound B-1 (29/68 as printed)): 46%
